Patent US20090221543A1, “NEW CORTICOSTEROIDS” (NICOX S A., priority 2002, published 2009)
Like-named read-outs stand apart in the source and are kept apart here. Each block holds one compound with its values, some of them ahead of it.

What was measured:
[1] = tested on: bronchoconstriction caused by histamine; test: Bronchoconstriction caused by histamine in guinea pigs (sGaw, whole body plethysmography); format: in vivo
Protocol: Male guinea pigs weighing between 250 and 300 g for several days before the beginning of the experiment have been accustomed to the restrained and whole-body plethysmograph. Histamine (3 mM dissolved in saline solution 0.9%) has been administered by intranasal route for 20 seconds 24 hours before and 15 minutes after the administration of the tested compounds. NO-Budesonide (635: g/ml) and Budesonide (448: g/ml) dissolved in a mixture (v/v) DMSO 20%, ethanol 10%, saline physiological solution 70%, or the carrier, have been administered to the animals as aerosols, in a sealed room, using a wright nebulizer operating by compressed air at a pressure of 21.38×10^3 Pa (20 p.s.i.) and a flow of 0.5 ml/min. The administration lasted 15 minutes.
To monitor the functionality of the animal airways the “whole body” plethysmography has been used. The animals were watchful and functionality has been determined as specific conductance of the airways (sGaw), expressed in % change of the basal value in the instant immediately after the exposure. To this purpose the animals were provided with a suitable mask and then transferred in a sealed room. The respiratory flow has been determined by a pneumotachograph and a pressure transducer.

glucocorticoid receptor = biological target: T1, glucocorticoid receptor (Homo sapiens, UniProt P04150); test: GR binding assay: displacement of 3H-dexamethasone from glucocorticoid binding sites in human monocytes; details: 3H-dexamethasone 50 nM, 37° C., 1 hour
T1 construct: The monocytes have been isolated from human blood by a method based on a density gradient; endogenous in cells; host or cells: primary human blood monocytes (Ficoll-Hypaque isolated), intact cells
T1 sequence (P04150 1-777): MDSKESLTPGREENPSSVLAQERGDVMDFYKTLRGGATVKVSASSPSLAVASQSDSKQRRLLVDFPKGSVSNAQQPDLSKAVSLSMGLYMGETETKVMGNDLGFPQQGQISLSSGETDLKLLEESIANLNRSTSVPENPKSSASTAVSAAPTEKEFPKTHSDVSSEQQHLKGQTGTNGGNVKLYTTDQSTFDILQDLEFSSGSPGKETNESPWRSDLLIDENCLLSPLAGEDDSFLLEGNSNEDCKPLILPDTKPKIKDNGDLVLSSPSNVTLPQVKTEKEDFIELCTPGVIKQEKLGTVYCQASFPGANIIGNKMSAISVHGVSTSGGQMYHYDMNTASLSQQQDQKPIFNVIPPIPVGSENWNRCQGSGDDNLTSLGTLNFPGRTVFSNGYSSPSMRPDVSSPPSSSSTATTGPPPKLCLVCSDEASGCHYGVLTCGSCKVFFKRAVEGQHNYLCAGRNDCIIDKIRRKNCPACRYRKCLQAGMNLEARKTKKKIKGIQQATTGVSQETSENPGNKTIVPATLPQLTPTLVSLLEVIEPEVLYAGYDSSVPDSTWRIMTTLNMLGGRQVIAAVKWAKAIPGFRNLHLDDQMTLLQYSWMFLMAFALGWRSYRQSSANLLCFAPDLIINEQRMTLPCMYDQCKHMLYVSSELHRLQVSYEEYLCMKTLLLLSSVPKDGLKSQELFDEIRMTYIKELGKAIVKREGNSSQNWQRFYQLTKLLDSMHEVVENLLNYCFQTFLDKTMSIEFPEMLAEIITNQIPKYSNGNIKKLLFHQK
Protocol: In these experiments human monocytes having on their surface receptors for glucocorticoids have been used.
In this experiment the capability of the tested substances to displace ^3H-dexamethasone from the bond sites for the glucorticoids present in human monocytes has been evaluated.
The test tube content has been mixed using a Vortex equipment. The test tubes have then been incubated at 37° C. for 1 hour.
After incubation, the cells have been washed 4 times with a saline solution in phosphate buffer cooled in ice bath (PBS, 0.01 M) and the amount of [^3H]-dexamethasone bound to the cells has been determined by liquid scintigraphy. For each sample the concentration of [^3H]-dexamethasone bound to the cells (femtomoles (fmoles)/ml 10^−15 moles/ml) has been calculated by substracting from the measured values the non specific bond value, and then multiplying by the ratio molarity/radioactivity.
The data reported in the Tables are expressed in fmole [^3H]-dexamethasone/ml.

[2] = tested on: spinal lesions from trauma; test: Recovery of motor functions after spinal lesions from trauma in rats (BBB score); details: 20 mg/kg s.c. once a day for 5 days
primary rat osteoclastes [3] = details: 18 h, 1 nM
[4] = format: in vivo, Sprague Dawley rats; details: 5 mg/Kg/die i.p. for 3 weeks
Protocol: […]. The controls have been treated with the carrier (peanut oil 0.5 ml/rat/die i.p. for 3). At the end of the treatment the average arterial pressure (MABP) and the heart-beat have been controlled in the rats. […]. treated group 348±18, n=9).

[5] = tested on: gastric damage caused by ischaemia-reperfusion; test: Gastric damage caused by ischaemia-reperfusion in rats; details: 28 :moles/kg by os 2 hours before the ischaemia; control 3 ± 1
[6] = tested on: arthritis caused by collagen; test: Anti-arthritic activity in collagen-induced arthritis in rats; format: in vivo, Lewis rats; details: 4 :moles/kg i.p.; for Hind Legs Articulations Sizes: day 12 to 18, measured on day 18, control 7.03, naive 5.9; for histological analysis of the articulations: day 18; for Leg Average Volume: plethysmometer, control 1.5, naive 1.1; for Hip Functionality Evaluation (Score): score 0 (absence of inflammation) to 3 (serious inflammation), control 1.6; for Hind Legs Articulations Reduction %: with respect to the control group treated only with collagen suspension
Protocol: Lewis female rats weighing 150-200 g fed by a standard diet and with free access to water have been stabulated with cycles of 12 hours light/dark.
To carry out the experiment, the rats were anaesthetized with halothane (day zero), then at the base of the tail, by intradermal injection, a collagen suspension II/Freund's incomplete adjuvant (400: g/rat) was injected, prepared as described hereinafter: nasal bovine collagen of type II (Sigma-Aldrich, 4 mg/ml) has been dissolved in acetic acid (0.01 M) and emulsified with a same volume of cold Freund's incomplete adjuvant (Sigma-Aldrich).
The arthritic pathology became evident between the 11th and the 13th day, with a maximum inflammation at the 18th day in untreated rats.
From the 12th to the 18th day subsequent to the injection, the rats, divided in 3 groups of 10 animals each, have been treated i.p. according to the following protocol:
A fourth group of healthy rats (naive) has been taken as a further reference.
During the treatment with the tested compounds the antiarthritic activity has been evaluated by the following parameters: • average paw volume determined by a plethysmometer; • clinical evaluation of the hip functionality by an arbitrary score from 0 (absence of inflammation) to 3 (serious inflammation, which affects both the hip articulation and the animal paw).
On the 18th day the rats were sacrificed and the diameters of the femoral articulations of the animal hind legs were determined after skin removal; and an histological analysis of the articulations was carried out.
In table 5 there are reported: • the articulation sizes expressed in mm, • the percent reduction of the articulation size calculated with respect to the control rat group treated only with the collagen suspension, • the paw average volume, expressed in ml, daily determined, • the score evaluation of the hip functionality.

primary rat osteoclastes [7] = test: Osteoclastic activity in vitro (reabsorption areas on calcium phosphate plaques); details: 1 nM, 18 hours at 37° C.; control 100
[8] = t0 = 24 hours before the inhalation of the tested compound
[9] = t1 = 15 minutes after the inhalation of the tested compound, aerosol for 15 minutes, equimolar doses (635 / 448 :g/ml)

SMILES: CCCC1O[C@@H]2C[C@H]3[C@@H]4CCC5=CC(=O)C=C[C@]5(C)[C@H]4[C@@H](O)C[C@]3(C)[C@]2(C(=O)CO)O1 (stereo partly drawn) [Budesonide, reference compound]
- specific conductance of the airways (sGaw), % change of the basal value after histamine [1, 8]: −28.7 ± 8.8%
- specific conductance of the airways (sGaw), % change of the basal value after histamine [1, 9]: −42.6 ± 15.9%

SMILES: CCCC1O[C@@H]2CC3C4CCC5=CC(=O)C=C[C@]5(C)C4[C@@H](O)C[C@]3(C)[C@]2(C(=O)COC(=O)c2ccc(CO[N+](=O)[O-])cc2)O1 (stereo partly drawn) [Budesonide-NO, Budesonide 21-(4′-nitrooxymethyl)benzoate]
- inhibition of the bronchoconstriction caused by histamine ([1]; aerosol, equimolar doses): 100%
- specific conductance of the airways (sGaw), % change of the basal value after histamine [1, 8]: −29.7 ± 9.8%
- specific conductance of the airways (sGaw), % change of the basal value after histamine [1, 9]: +1.4 ± 7.9%

SMILES: C[C@@H]1CC2C3CCC4=CC(=O)C=C[C@]4(C)[C@@]3(F)[C@@H](O)C[C@]2(C)[C@@]1(O)C(=O)COC(=O)c1ccc(CO[N+](=O)[O-])cc1 (stereo partly drawn) [Dex-Ar—ONO2, Dexamethasone 21-(4′-nitrooxymethyl)benzoate]
- Bound 3H Dexamethasone (glucocorticoid receptor; tested compound 0.1 μM): 1.1 fmol/mL

SMILES: C[C@]12CCC(=O)C=C1CCC1C2[C@@H](O)C[C@@]2(C)C1CC[C@]2(O)C(=O)COC(=O)c1ccc(CO[N+](=O)[O-])cc1 (stereo partly drawn) [Hydr-Ar—ONO2, Hydrocortisone 21-(4′-nitrooxymethyl)benzoate]
- Bound 3H Dexamethasone (glucocorticoid receptor; tested compound 0.3 :M): 17.3 fmol/mL
- Bound 3H Dexamethasone (glucocorticoid receptor; tested compound 10 :M): 0 fmol/mL

SMILES: C[C@]12CCC(=O)C=C1CC[C@@H]1[C@@H]2[C@@H](O)C[C@@]2(C)[C@H]1CC[C@]2(O)C(=O)COC(=O)CCCO[N+](=O)[O-] [Hydr-C4—ONO2, Hydrocortisone-21-(4-nitrooxybutyrate), reference compound]
- Bound 3H Dexamethasone (glucocorticoid receptor; tested compound 0.3 :M): 25.6 fmol/mL
- Bound 3H Dexamethasone (glucocorticoid receptor; tested compound 10 :M): 4.3 fmol/mL

SMILES: C[C@]12C=CC(=O)C=C1CCC1C2[C@@H](O)C[C@@]2(C)C1CC[C@]2(O)C(=O)COC(=O)c1ccc(CO[N+](=O)[O-])cc1 (stereo partly drawn) [Predn-Ar—ONO2, Prednisolone 21-(4′-nitrooxymethyl)benzoate]
- Motor Behaviour Evaluation (BBB score) ([2]; 3rd day after trauma, 0 = does not walk, 20 = normal, control 4): 8
- Motor Behaviour Evaluation (BBB score) ([2]; 5th day after trauma, control 6): 14
- Motor Behaviour Evaluation (BBB score) ([2]; 7th day after trauma, control 8): 17
- Bound 3H Dexamethasone (glucocorticoid receptor; tested compound 1 μM): 0 fmol/mL
- % Reabsorbed Area with Respect to Control Area (primary rat osteoclastes [3]): 90%
- heart-beat ([4]; control 330±32): 348±18
- average arterial pressure (MABP) ([4]; controls 110±4): 128±7
- Lesion Index (LI) [5]: 7 ± 2.1
- Hind Legs Articulations Sizes [6]: 5.7 mm
- histological analysis of the articulations [6]: both the synovial inflammation and the infiltration of inflammatory cells in cartilages were minimal, without compromising the cartilages
- Leg Average Volume [6]: 1.1 mL
- Hip Functionality Evaluation (Score) [6]: 0.1 Score
- Hind Legs Articulations Reduction % [6]: 18.6%

SMILES: C[C@]12C=CC(=O)C=C1CC[C@@H]1[C@@H]2[C@@H](O)C[C@@]2(C)[C@H]1CC[C@]2(O)C(=O)COC(=O)CCCO[N+](=O)[O-] [Predn-C4—ONO2, Prednisolone 21-(4-nitrooxy)butyrate, reference compound]
- Bound 3H Dexamethasone (glucocorticoid receptor; tested compound 1 μM): 9.9 fmol/mL

- Bound 3H Dexamethasone (glucocorticoid receptor; tested compound 1 μM): 2.4 fmol/mL
SMILES: C[C@]12C=CC(=O)C=C1CC[C@@H]1[C@@H]2[C@@H](O)C[C@@]2(C)[C@H]1CC[C@]2(O)C(=O)COC(=O)CN1CCN(CCCO[N+](=O)[O-])CC1.O=C(O)C(F)(F)F.O=C(O)C(F)(F)F [Predn-pyper-C3—ONO2, Prednisolone-21-[2-[4-(3-nitrooxypropyl)piperazin-1-yl]acetate]bis-trifluoromethanacetate]

- Bound 3H Dexamethasone (glucocorticoid receptor; tested compound 1 μM): 5.5 fmol/mL
SMILES: C[C@]12C=CC(=O)C=C1CC[C@@H]1[C@@H]2[C@@H](O)C[C@@]2(C)[C@H]1CC[C@]2(O)C(=O)COC(=O)CN1CCN(CCCO[N+](=O)[O-])CC1.Cl.Cl [Predn-pyper-ONO2, Prednisolone-21-[2-[4-(3-nitrooxypropyl)piperazin-1-yl]acetate]bishydrochloride]

- % Reabsorbed Area with Respect to Control Area (primary rat osteoclastes [7]): 148%
SMILES: C[C@]12C=CC(=O)C=C1CC[C@@H]1[C@@H]2[C@@H](O)C[C@@]2(C)[C@H]1CC[C@]2(O)C(=O)CO [Prednisolone, reference compound]
- Lesion Index (LI) [5]: 44 ± 2.5
- Hind Legs Articulations Sizes [6]: 6.1 mm
- histological analysis of the articulations [6]: cartilage ulcerations and synovial inflammation were present
- Leg Average Volume [6]: 1.26 mL
- Hip Functionality Evaluation (Score) [6]: 0.6 Score
- Hind Legs Articulations Reduction % [6]: 12.7%
